Among the test systems are DLD-1 colon; DMS 273 small cell lung; KM20L2 colon; XF 498 CNS; LXFL 529 NSCLC; DMS 114 small cell lung; HOP-18 NSCLC; M19-MEL melanoma; SNB-78 CNS; RXF-631 renal.
What all share (test): NCI tumour cell line growth inhibition, 48 h

Each structure is given as a SMILES string.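 Compound exposure: 48 hours, 5 concentrations, 96-well plates. Definition used: TGI = concentration required for complete inhibition of growth.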

These results are taken from PubChem BioAssay (NCI).

With `Cc1cc2c(s1)C(=O)c1sccc1C2=O`, the TGI turned out to be 3.36 µM with DLD-1 colon; 2.62 µM with DMS 273 small cell lung; 4.75 µM in the assay with KM20L2 colon; 2.92 µM in the assay with XF 498 CNS; 2.5 µM in the assay on LXFL 529 NSCLC; 0.6 µM in the assay with DMS 114 small cell lung. In the assay with HOP-18 NSCLC, this molecule had a TGI of 2.81 µM.

Consider `Cc1cc2oc(=O)[nH]c(=S)c2c(C)c1C`, for which the TGI in the assay on DMS 273 small cell lung, in the assay with KM20L2 colon, in the assay with M19-MEL melanoma, in the assay on XF 498 CNS, in the assay with LXFL 529 NSCLC and in the assay with DMS 114 small cell lung was greater than 100 µM throughout. This molecule also had a TGI with HOP-18 NSCLC greater than 100 µM.

On to `CCOC(=O)CC[C@@H](NC(=O)c1ccc(N[C@@H]2c3cc4c(cc3C(c3cc(OC)c(O)c(OC)c3)C3C(=O)OC[C@@H]32)OCO4)cc1)C(=O)OCC` (stereo partly specified), for which the TGI in the assay on SNB-78 CNS was greater than 10 µM; in the assay with DLD-1 colon it was 0.406 µM; in the assay with DMS 273 small cell lung, 0.114 µM; in the assay with KM20L2 colon it was 0.272 µM; in the assay with LXFL 529 NSCLC, greater than 10 µM; in the assay on HOP-18 NSCLC it was greater than 10 µM.

In the case of `COc1ccc(C2C(Cl)C(=O)N2NC(=O)Cc2ccccc2)cc1` (stereo unspecified), the TGI in the assay on SNB-78 CNS, in the assay with DLD-1 colon, in the assay on DMS 273 small cell lung, in the assay on KM20L2 colon, in the assay with M19-MEL melanoma and in the assay on XF 498 CNS was greater than 100 µM in each case. Moreover, the TGI with LXFL 529 NSCLC and in the assay on HOP-18 NSCLC was greater than 100 µM throughout.

Turning to `COC(=O)CC1C(=O)OCc2c1cc1n(c2=O)Cc2c-1nc1ccccc1c2OC` (stereo unspecified), the TGI in the assay with DMS 273 small cell lung, with KM20L2 colon, in the assay on M19-MEL melanoma, in the assay with XF 498 CNS, in the assay on LXFL 529 NSCLC and in the assay with DMS 114 small cell lung was greater than 100 µM each time. In the assay on HOP-18 NSCLC, this molecule showed a TGI greater than 100 µM.

As for `COc1cc2[nH]c(-c3cccc(N(C)C)c3)cc(=O)c2cc1OC`, the TGI in the assay with SNB-78 CNS is greater than 100 µM; with DLD-1 colon, greater than 100 µM; with DMS 273 small cell lung, greater than 100 µM; in the assay on KM20L2 colon, 5.46 µM; in the assay on M19-MEL melanoma, greater than 100 µM; in the assay with XF 498 CNS, greater than 100 µM. For the same molecule, the values for the TGI in the assay on LXFL 529 NSCLC, in the assay with DMS 114 small cell lung and in the assay on HOP-18 NSCLC were greater than 100 µM, greater than 49.1 µM and 9.35 µM, respectively.

As to `CCN(CC)Cc1cc(Nc2c3ccccc3nc3c2[nH]c2ccccc23)ccc1O`, the TGI in the assay on SNB-78 CNS is 4.87 µM; in the assay with DLD-1 colon, 5.7 µM; in the assay on DMS 273 small cell lung, 1.84 µM; with RXF-631 renal, 4.37 µM; with KM20L2 colon it was 2.41 µM; in the assay with M19-MEL melanoma, 3.04 µM. The TGI worked out at 3.18 µM in the assay on XF 498 CNS, 3.02 µM with LXFL 529 NSCLC, 3.14 µM with DMS 114 small cell lung and 5.39 µM in the assay on HOP-18 NSCLC.

For `CCC1(N=[N+]=[N-])C(=O)Nc2cc(C)ccc2C1=O` (stereo unspecified), the TGI in the assay with SNB-78 CNS, in the assay with DLD-1 colon, in the assay on DMS 273 small cell lung, in the assay with KM20L2 colon, in the assay with M19-MEL melanoma and in the assay on LXFL 529 NSCLC was greater than 100 µM in each case. Also, the TGI with DMS 114 small cell lung and in the assay on HOP-18 NSCLC was greater than 100 µM throughout.

On to `O=C(c1ccncc1)n1nc(-c2ccccc2)c(N=Nc2ccc([N+](=O)[O-])cc2)c1-c1ccccc1`, for which the TGI was 28 µM in the assay with SNB-78 CNS; greater than 100 µM in the assay on DLD-1 colon; greater than 100 µM in the assay with DMS 273 small cell lung; greater than 100 µM in the assay with M19-MEL melanoma; greater than 100 µM in the assay on XF 498 CNS; 25.7 µM in the assay on LXFL 529 NSCLC. In addition, in the assay with DMS 114 small cell lung, the TGI was greater than 100 µM.

With `CCCCc1c2c(nc3c1CCC/C3=C\c1ccccc1)C(=O)C(CN(C)C)CC2` (stereo unspecified), the TGI in the assay with SNB-78 CNS turned out to be 45.6 µM; in the assay on DLD-1 colon, 33.4 µM; in the assay on DMS 273 small cell lung, 41.1 µM; in the assay with KM20L2 colon, 35.6 µM; with M19-MEL melanoma it was 32 µM; with XF 498 CNS it was 28.2 µM. Further, the TGI was found to be 21 µM with LXFL 529 NSCLC, 34.8 µM in the assay on DMS 114 small cell lung and 38.5 µM in the assay with HOP-18 NSCLC.

As to `COc1ccc2c3ccc4c(c3n(C)c2c1)C(=O)c1ccccc1C4=O`, the TGI with SNB-78 CNS, in the assay with DLD-1 colon, in the assay on DMS 273 small cell lung, in the assay on KM20L2 colon, with M19-MEL melanoma and with LXFL 529 NSCLC was greater than 100 µM each time. The TGI in the assay with DMS 114 small cell lung and in the assay with HOP-18 NSCLC was greater than 100 µM in each case.

Regarding `CC1=NN(C(=O)Cc2ccccc2)C(=O)/C1=C\C=C\c1ccccc1`, the TGI in the assay on SNB-78 CNS, in the assay with DLD-1 colon, with DMS 273 small cell lung, with XF 498 CNS and with HOP-18 NSCLC was greater than 100 µM each time.
